Data set [1] deals with T1, full-length beta-Catenin (Uniprot ID P35222) (Homo sapiens, UniProt P35222).
T1 construct: 10 nM full-length beta-Catenin (Uniprot ID P35222)
T1 sequence (P35222 1-781): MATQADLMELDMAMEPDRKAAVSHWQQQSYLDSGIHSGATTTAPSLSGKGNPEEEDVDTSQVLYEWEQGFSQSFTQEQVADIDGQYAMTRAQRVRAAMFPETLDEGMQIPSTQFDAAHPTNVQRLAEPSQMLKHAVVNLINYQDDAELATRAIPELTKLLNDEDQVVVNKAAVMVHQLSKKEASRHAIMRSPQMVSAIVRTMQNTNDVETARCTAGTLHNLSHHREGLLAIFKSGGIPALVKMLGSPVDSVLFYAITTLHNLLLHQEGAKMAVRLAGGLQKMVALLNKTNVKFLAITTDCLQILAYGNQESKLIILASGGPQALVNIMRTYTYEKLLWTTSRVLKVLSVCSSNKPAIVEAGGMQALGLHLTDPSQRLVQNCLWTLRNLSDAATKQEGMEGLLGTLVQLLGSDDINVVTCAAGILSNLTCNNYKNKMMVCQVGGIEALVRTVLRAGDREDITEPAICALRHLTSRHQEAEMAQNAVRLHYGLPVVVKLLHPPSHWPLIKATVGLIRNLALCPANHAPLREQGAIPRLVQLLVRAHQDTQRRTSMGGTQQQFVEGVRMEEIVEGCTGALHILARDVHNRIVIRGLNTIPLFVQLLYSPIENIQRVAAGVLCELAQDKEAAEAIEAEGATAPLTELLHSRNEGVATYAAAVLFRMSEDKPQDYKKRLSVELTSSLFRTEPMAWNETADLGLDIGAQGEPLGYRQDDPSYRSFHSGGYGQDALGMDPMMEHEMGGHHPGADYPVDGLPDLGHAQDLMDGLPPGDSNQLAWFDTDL
Nature of the data set: Fluorescence polarization IC50 (beta-catenin / 5FAM-TCF4 10-53 competition). It is filed as binding. In general terms: Polarisation of emitted light reports the rotation of a fluorescent probe.

The next data set can be described thus: CHI Log D procedure. It counts as physicochemical. The following applies: for chromatographic logD: pH 7.4, CHI Log D; for CHI Log D: pH 7.4.
The nature of another data set: Solubility in PBS. It counts as physicochemical. The method in brief:
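Read-out is the HPLC peak area of the supernatant from ultracentrifuged PBS solution, scaled against a 50 μM peptide DMSO injection; value reported as [(PBS area)/(DMSO area)]*50 uM.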

Data set [2] concerns the target T2, beta-catenin/TCF4 engagement (Homo sapiens, UniProt P35222).
T2 construct: expressed in transfected cells; host or cells: HEK293
T2 sequence (P35222 1-781): T1 sequence (P35222 1-781)
Description: Nano-BRET target engagement assay (B-cat-Halo & TCF4-Luc in HEK293 cells). The settings on record: absolute IC50; read-out: NanoBRET Abs IC50. It is filed as cell-based.

The mark [3] stands for this setting: fluorescence polarization, read-out: beta-Catenin FP IC50.

In brackets after ≈: the same amount, converted by molar mass. Like-named read-outs stand apart in the source and are kept apart here.

The chromatographic logD is lipophilicity estimated from chromatographic retention. A higher chromatographic logD goes with a more lipophilic compound. A word on the Solubility: it is the concentration that dissolves in the medium under given conditions. Lower therefore signals a poorly soluble substance. Take `CC[C@H](C)[C@@H]1NC(=O)[C@H](CC(=O)O)NC(=O)[C@]2(CC=CCCCC3(CCCC=CCCCCCC[C@@](C)(C(=O)N[C@@H](Cc4ccccc4OC)C(=O)N[C@@H](Cc4csc5ccccc45)C(=O)N[C@@H](Cc4c[nH]cn4)C(N)=O)NC(=O)[C@H](CC(N)=O)NC(=O)[C@H](Cc4ccccc4)NC(=O)[C@H](C)NC(=O)[C@H](C)NC(=O)[C@H](CCC(=O)O)NC(=O)[C@H](CC(=O)O)NC3=O)NC1=O)CCCN2C(C)=O` (stereo partly drawn) [I-512, Ac-PL3-Asp-Ile-B5-Asp-Glu-Ala-Ala-Phe-Asn-S8-2OMeF-BztA-His-NH2]: the figures for the IC50 in data set [1] (setting [3]) and in data set [2] were 20 nM and 12300 nM, respectively. Besides, in the data set “CHI Log D procedure”, the chromatographic logD was 2.44. Further, the concentration in solution in “Solubility in PBS” (Solubility (uM)) (Solubility) came to 17 µM (≈ 32.4 µg/mL).
On to `CC[C@H](C)[C@@H]1NC(=O)[C@H](CC(=O)O)NC(=O)[C@]2(CC=CCCCC3(CCCC=CCCCCCC[C@@](C)(C(=O)N[C@@H](Cc4ccccc4C(N)=O)C(=O)N[C@@H](Cc4csc5ccccc45)C(=O)N[C@@H](Cc4c[nH]cn4)C(N)=O)NC(=O)[C@H](CC(N)=O)NC(=O)[C@H](Cc4ccccc4)NC(=O)[C@H](C)NC(=O)[C@H](C)NC(=O)[C@H](CCC(=O)O)NC(=O)[C@H](CC(=O)O)NC3=O)NC1=O)CCCN2C(C)=O` (stereo partly drawn) [I-514, Ac-PL3-Asp-Ile-B5-Asp-Glu-Ala-Ala-Phe-Asn-S8-2CBMF-BztA-His-NH2], for which the IC50 in data set [1] (setting [3]) is 30 nM; in data set [2] it was more than 20000 nM. The chromatographic logD in “CHI Log D procedure” turned out to be 1.91. In addition, the “Solubility” value in “Solubility in PBS” came out at 50 µM (≈ 96.1 µg/mL).
`CC[C@H](C)[C@@H]1NC(=O)[C@H](CC(=O)O)NC(=O)[C@]2(CC=CCCCC3(CCCC=CCCCCCC[C@@](C)(C(=O)N[C@@H](Cc4ccsc4)C(=O)N[C@@H](Cc4csc5ccccc45)C(=O)N[C@@H](Cc4c[nH]cn4)C(N)=O)NC(=O)[C@H](CC(N)=O)NC(=O)[C@H](Cc4ccccc4)NC(=O)[C@H](C)NC(=O)[C@H](C)NC(=O)[C@H](CCC(=O)O)NC(=O)[C@H](CC(=O)O)NC3=O)NC1=O)CCCN2C(C)=O` (stereo partly drawn) [I-517, Ac-PL3-Asp-Ile-B5-Asp-Glu-Ala-Ala-Phe-Asn-S8-3Thi-BztA-His-NH2]: the IC50 in data set [1] (setting [3]) worked out at 15 nM; in data set [2], 9700 nM. Further, the chromatographic logD in the data set “CHI Log D procedure” came to 2.42. Further, the concentration in solution in “Solubility in PBS” (Solubility (uM)) (Solubility) came to 15 µM (≈ 28.3 µg/mL).
As to `CC(=O)N1CCC[C@]12CC=CCCCC1(CCCC=CCCCCCC[C@@](C)(C(=O)N[C@@H](Cc3ccsc3)C(=O)N[C@@H](Cc3csc4ccccc34)C(=O)N[C@@H](CCC(N)=O)C(N)=O)NC(=O)[C@H](CC(N)=O)NC(=O)[C@H](Cc3ccccc3)NC(=O)[C@H](C)NC(=O)[C@H](C)NC(=O)[C@H](CCC(=O)O)NC(=O)[C@H](CC(=O)O)NC1=O)NC(=O)[C@H](C)NC(=O)[C@H](CC(=O)O)NC2=O` (stereo partly drawn) [I-519, Ac-PL3-Asp-Ala-B5-Asp-Glu-Ala-Ala-Phe-Asn-S8-3Thi-BztA-Gln-NH2], the IC50 in data set [1] (setting [3]) is 33 nM; in data set [1] (read-out: FP EC50) it was 33 nM; in data set [2], 28800 nM. In the data set “CHI Log D procedure”, the “CHI Log D” value is 2.004. In addition, in the data set “Solubility in PBS”, the “Solubility” value was determined as 50 µM (≈ 91.7 µg/mL).
For `CC[C@H](C)[C@@H]1NC(=O)[C@H](CC(=O)O)NC(=O)[C@]2(CC=CCCCC3(CCCC=CCCCCCC[C@@](C)(C(=O)N[C@@H](Cc4ccsc4)C(=O)N[C@@H](Cc4csc5ccccc45)C(=O)N[C@@H](CCC(N)=O)C(N)=O)NC(=O)[C@H](CC(N)=O)NC(=O)[C@H](Cc4ccccc4)NC(=O)[C@H](C)NC(=O)[C@H](C)NC(=O)[C@H](CCC(=O)O)NC(=O)[C@H](CC(=O)O)NC3=O)NC1=O)CCCN2C(C)=O` (stereo partly drawn) [I-521, Ac-PL3-Asp-Ile-B5-Asp-Glu-Ala-Ala-Phe-Asn-S8-3Thi-BztA-Gln-NH2], the IC50 was 23 nM in data set [1] (setting [3]), 23 nM in data set [1] (read-out: FP EC50) and 15400 nM in data set [2]. For the same compound, the “CHI Log D” value in “CHI Log D procedure” is recorded as 2.351. In “Solubility in PBS”, the “Solubility” value was found to be 50 µM (≈ 93.8 µg/mL).
In the case of `CC(=O)N1CCC[C@]12CC=CCCCC1(CCCC=CCCCCCC[C@@](C)(C(=O)N[C@@H](Cc3ccccc3)C(=O)N[C@@H](Cc3csc4ccccc34)C(=O)N[C@@H](Cc3c[nH]cn3)C(N)=O)NC(=O)[C@H](CC(N)=O)NC(=O)[C@H](Cc3ccccc3)NC(=O)[C@H](C)NC(=O)[C@H](C)NC(=O)[C@H](CCC(=O)O)NC(=O)[C@H](CC(=O)O)NC1=O)NC(=O)[C@H](CC(C)C)NC(=O)[C@H](CC(=O)O)NC2=O` (stereo partly drawn) [I-543, Ac-PL3-Asp-Leu-B5-Asp-Glu-Ala-Ala-Phe-Asn-S8-Phe-BztA-His-NH2], the IC50 in data set [1] (setting [3]) was 32 nM; in data set [2], 17000 nM. The chromatographic logD in the data set “CHI Log D procedure” was found to be 2.47. For the same compound, the Solubility in “Solubility in PBS” (Solubility (uM)) is 28 µM (≈ 52.6 µg/mL).
`CC(=O)N1CCC[C@]12CC=CCCCC1(CCCC=CCCCCCC[C@@](C)(C(=O)N[C@@H](Cc3ccccc3)C(=O)N[C@@H](Cc3csc4ccccc34)C(=O)N[C@@H](CCC(N)=O)C(N)=O)NC(=O)[C@H](CCC(N)=O)NC(=O)[C@H](Cc3ccccc3)NC(=O)[C@H](C)NC(=O)[C@H](C)NC(=O)[C@H](CCC(=O)O)NC(=O)[C@H](CC(=O)O)NC1=O)NC(=O)[C@H](CC(C)(C)C)NC(=O)[C@H](CC(=O)O)NC2=O` (stereo partly drawn) [I-544, Ac-PL3-Asp-Npg-B5-Asp-Glu-Ala-Ala-Phe-Gln-S8-Phe-BztA-Gln-NH2]: the IC50 in data set [1] (setting [3]) came out at 24 nM; in data set [2] it was 4600 nM. This compound also came in with a chromatographic logD in the data set “CHI Log D procedure” of 2.48. The same compound registered a Solubility in the data set “Solubility in PBS” (Solubility (uM)) of 48 µM (≈ 91.1 µg/mL).
The like results for `CC(=O)N1CCC[C@]12CC=CCCCC1(CCCC=CCCCCCC[C@@](C)(C(=O)N[C@@H](Cc3ccccc3)C(=O)N[C@@H](Cc3csc4ccccc34)C(=O)N[C@@H](CCC(N)=O)C(N)=O)NC(=O)[C@H](CCC(N)=O)NC(=O)[C@H](Cc3ccccc3)NC(=O)[C@H](C)NC(=O)[C@H](C)NC(=O)[C@H](CCC(=O)O)NC(=O)[C@H](CC(=O)O)NC1=O)NC(=O)[C@H](CCC(C)C)NC(=O)[C@H](CC(=O)O)NC2=O` (stereo partly drawn) [I-545, Ac-PL3-Asp-hLeu-B5-Asp-Glu-Ala-Ala-Phe-Gln-S8-Phe-BztA-Gln-NH2] were, in that order, 21 nM, 3500 nM, 2.57 and 46 µM (≈ 87.3 µg/mL).
Regarding `CC(=O)N1CCC[C@]12CC=CCCCC1(CCCC=CCCCCCC[C@@](C)(C(=O)N[C@@H](Cc3ccccc3)C(=O)N[C@@H](Cc3csc4ccccc34)C(=O)N[C@@H](CCC(N)=O)C(N)=O)NC(=O)[C@H](CC(N)=O)NC(=O)[C@H](Cc3ccccc3)NC(=O)[C@H](C)NC(=O)[C@H](C)NC(=O)[C@H](CC(=O)O)NC(=O)[C@H](CC(=O)O)NC1=O)NC(=O)[C@H](CC(C)(C)C)NC(=O)[C@H](CC(=O)O)NC2=O` (stereo partly drawn) [I-546, Ac-PL3-Asp-Npg-B5-Asp-Asp-Ala-Ala-Phe-Asn-S8-Phe-BztA-Gln-NH2], the IC50 in data set [1] (setting [3]) was 16 nM; in data set [2], 12100 nM. The chromatographic logD in “CHI Log D procedure” came out at 2.4. Besides, in “Solubility in PBS”, the “Solubility” value turned out to be 50 µM (≈ 93.5 µg/mL).
As to `CC(=O)N1CCC[C@]12CC=CCCCC1(CCCC=CCCCCCC[C@@](C)(C(=O)N[C@@H](Cc3ccccc3)C(=O)N[C@@H](Cc3csc4ccccc34)C(=O)N[C@@H](CCC(N)=O)C(N)=O)NC(=O)[C@H](CC(N)=O)NC(=O)[C@H](Cc3ccccc3)NC(=O)[C@H](C)NC(=O)[C@H](C)NC(=O)[C@H](CC(=O)O)NC(=O)[C@H](CC(=O)O)NC1=O)NC(=O)[C@H](CCC(C)C)NC(=O)[C@H](CC(=O)O)NC2=O` (stereo partly drawn) [I-548, Ac-PL3-Asp-hLeu-B5-Asp-Asp-Ala-Ala-Phe-Asn-S8-Phe-BztA-Gln-NH2], the IC50 in data set [1] (setting [3]) is 17 nM; in data set [1] (read-out: FP EC50), 17 nM; in data set [2], 15600 nM. Also, the “CHI Log D” value in “CHI Log D procedure” came out at 2.528. Moreover, the “Solubility” value in the data set “Solubility in PBS” was found to be 50 µM (≈ 93.5 µg/mL).

For the origin of these results see patent publication US20240116985A1, “STAPLED PEPTIDES AND METHODS THEREOF” (priority 2020, published 2024).
